SMILES strings stand for the structures.

By IC50 is commonly meant the point on the concentration scale where inhibition reaches its midpoint. For orientation: melting point means the temperature, or range, at which the solid turns liquid.

Data set [1] concerns the target human recombinant PDE5 (Homo sapiens, UniProt O76074). Description: Inhibitory effect on cGMP-PDE (PDE5 IC50, one-step assay). The note with it: human recombinant PDE5, 0.15 μM 8-[H3]-cGMP, 30 minutes incubation. The class given is biochemical. How it is done: The compounds of structural formula (I) were tested for an ability to inhibit PDE5. The ability of a compound to inhibit PDE5 activity is related to the IC50 value for the compound, i.e., the concentration of inhibitor required for 50% inhibition of enzyme activity. The IC50 value for compounds of structural formula (I) were determined using recombinant human PDE5.
cGMP-PDE activity of compounds of the present invention was measured using a one-step assay adapted from Wells et al., Biochim. Biophys. Acta, 384, 430 (1975). The reaction medium contained 50 mM Tris-HCl, pH 7.5, 5 mM magnesium acetate, 250 μg/ml 5′-Nucleotidase, 1 mM EGTA, and 0.15 μM 8-[H^3]-cGMP. Unless otherwise indicated, the enzyme used was a human recombinant PDE5 (ICOS Corp., Bothell, Wash.).
Compounds of the invention were dissolved in DMSO finally present at 2% in the assay.

As to `COC(=O)CCCC(=O)N1CCc2c([nH]c3ccccc23)C1c1ccccc1` (stereo not drawn) [Example 20], the IC50 in data set [1] came to 1 nM.

`S=C(NCc1ccccc1)N1CCc2c([nH]c3ccccc23)C1c1ccc2c(c1)OCO2` (stereo not drawn) [Example 2a, 1-benzo[1,3]dioxol-5-yl-1,3,4,9-tetrahydro-β-caboline-2-carbothioic acid benzylamide] gave a melting point of 197 °C. The half-inhibitory concentration (IC50) in data set [1] was 51 nM. On the same counts, the results for `Cc1ccc(CNC(=S)N2CCc3c([nH]c4ccccc34)[C@H]2c2ccc3c(c2)OCO3)cc1C` [Example 37, (1R)-benzo[1,3]dioxol-5-yl-1,3,4,9-tetrahydro-β-carboline-2-carbothioic acid 3,4-dimethylbenzylamide] are 138 to 142 °C and 30 nM. `O=C(O)CCCC(=O)N1CCc2c([nH]c3ccccc23)C1c1ccc2c(c1)OCO2` (stereo not drawn) [Example 22]: the half-maximal inhibitory concentration (IC50) in data set [1] came to 150 nM.

For the compound `O=C(C=C1CCCCC1)N1CCc2c([nH]c3ccccc23)[C@H]1c1ccc2c(c1)OCO2` [Example 16], the melting point lay within 116 to 118 °C. For the same compound, the 50% inhibitory concentration (IC50) in data set [1] stood at 209 nM. The compound `S=C(NCc1cccc(Cl)c1)N1CCc2c([nH]c3ccccc23)[C@H]1c1ccc2c(c1)OCO2` [Example 36, (1R)-benzo[1,3]dioxol-5-yl-1,3,4,9-tetrahydro-β-carboline-2-carbothioic acid 3-chlorobenzylamide] came in with a melting point of 189 to 191 °C. Besides, in data set [1], the IC50 stood at 494 nM. In the case of `S=C(NCc1cccc2ccccc12)N1CCc2c([nH]c3ccccc23)[C@H]1c1ccc2c(c1)OCO2` [Example 39, (1R)-1-benzo[1,3]dioxol-5-yl-1,3,4,9-tetrahydro-β-carboline-2-carbothioic acid (naphthalen-1-yl-methyl)amide], the melting point was 111 to 113 °C. In addition, the IC50 in data set [1] is 119 nM.

`O=C(O)c1cccc(CNC(=S)N2CCc3c([nH]c4ccccc34)[C@H]2c2ccc3c(c2)OCO3)c1` [Example 29, (1R)-3-{[(1-benzo[1,3]dioxol-5-yl-1,3,4,9-tetrahydro-β-carboline-2-carbthiolyl)amino]methyl}benzoic acid]: the melting point was in the range of 218 to 220 °C. In data set [1], the IC50 was 469 nM. The compound `Fc1ccc(CNC(=S)N2CCc3c([nH]c4ccccc34)[C@H]2c2ccc3c(c2)OCO3)cc1` [Example 35, (1R)-benzo[1,3]dioxol-5-yl-1,3,4,9-tetrahydro-β-carboline-2-carbothioic acid 4-fluorobenzylamide] had a melting point of 137 to 139 °C. For the same compound, the concentration for half-maximal inhibition (IC50) in data set [1] was 122 nM.

Turning to `S=C(NCc1ccc(Cl)c(Cl)c1)N1CCc2c([nH]c3ccccc23)[C@H]1c1ccc2c(c1)OCO2` [Example 34, (1R)-benzo[1,3]dioxol-5-yl-1,3,4,9-tetrahydro-β-carboline-2-carbothioic acid 3,4-dichlorobenzylamide], the concentration for half-maximal inhibition (IC50) in data set [1] worked out at 512 nM. Same read-out and setting: the same measure for `O=C(OCc1ccccc1)N1CCc2c([nH]c3ccccc23)[C@H]1c1ccc2c(c1)OCO2` [Example 15b, (1R)-1-benzo[1,3]dioxol-5-yl-1,3,4,9-tetrahydro-β-carboline-2-carboxylic acid benzyl ester]: 9 nM. `O=S(=O)(/C=C/c1ccccc1)N1CCc2c([nH]c3ccccc23)[C@H]1c1ccc2c(c1)OCO2` [Example 41b, (1R)-1-benzo[1,3]dioxol-5-yl-2-(2-phenylethenesulfonyl)-2,3,4,9-tetrahydro-1H-β-carboline]: the melting point lay within 193 to 194 °C. Moreover, the 50% inhibitory concentration (IC50) in data set [1] amounted to 413 nM. For `S=C(NCc1ccc2c(c1)OCO2)N1CCc2c([nH]c3ccccc23)[C@H]1c1ccc2c(c1)OCO2` [Example 40, (1R)-1-benzo-[1,3]dioxol-5-yl-1,3,4,9-tetrahydro-β-carboline-2-carbothioic acid (benzo[1,3]dioxol-5-yl-methyl)amide] the same measures were 97 to 100 °C and 56 nM. For `O=C(CC(=O)N1CCc2c([nH]c3ccccc23)[C@H]1c1ccc2c(c1)OCO2)c1ccccc1` [Example 17, (1R)-1-(1-benzo[1,3]dioxol-5-yl-1,3,4,9-tetrahydro-β-carbolin-2-yl)-3-phenylpropane-1,3-dione], the IC50 in data set [1] is 29 nM.

For the compound `O=C(NC(=O)N1CCc2c([nH]c3ccccc23)[C@H]1c1ccc2c(c1)OCO2)c1ccccc1` [Example 12, N-((1R)-1-benzo[1,3]dioxol-5-yl-1,3,4,9-tetrahydro-β-carboline-2-carbonyl)benzamide], the IC50 in data set [1] amounted to 49 nM. Still for that read-out and setting: the same measure for `O=C(O)c1ccc(CNC(=S)N2CCc3c([nH]c4ccccc34)[C@H]2c2ccc3c(c2)OCO3)cc1` [Example 28, (1R)-4-{[(1-benzo[1,3]dioxol-5-yl-1,3,4,9-tetrahydro-β-carboline-2-carbthiolyl)-amino]methyl}benzoic acid]: 36 nM. Turning to `O=C(NC(=S)N1CCc2c([nH]c3ccccc23)C1c1ccc2c(c1)OCO2)c1ccccc1` (stereo not drawn) [Example 38], the melting point fell in the range of 207 to 208 °C. In data set [1], the half-inhibitory concentration (IC50) came to 379 nM.

For the compound `O=C(Nc1ccccc1)N1CCc2c([nH]c3ccccc23)C1c1ccccc1` (stereo not drawn) [Example 5], the half-maximal inhibitory concentration (IC50) in data set [1] is 400 nM.

Take `Fc1cccc(CNC(=S)N2CCc3c([nH]c4ccccc34)[C@H]2c2ccc3c(c2)OCO3)c1` [Example 33, (1R)-benzo[1,3]dioxol-5-yl-1,3,4,9-tetrahydro-β-carboline-2-carbothioic acid 3-fluorobenzylamide]: the melting point was in the range of 179 to 181 °C. For the same compound, the IC50 in data set [1] was determined as 75 nM. For the compound `Fc1ccccc1CNC(=S)N1CCc2c([nH]c3ccccc23)[C@H]1c1ccc2c(c1)OCO2` [Example 26], the half-inhibitory concentration (IC50) in data set [1] came out at 40 nM. Regarding `C[C@H](NC(=O)N1CCc2c([nH]c3ccccc23)[C@H]1c1ccc2c(c1)OCO2)c1ccccc1` [Example 10, (1R)-benzo[1,3]dioxol-5-yl-1,3,4,9-tetrahydro-β-carboline-2-carboxylic acid (1S)-(phenylethyl)amide], the melting point is 120 to 121 °C. Further, the IC50 in data set [1] is 13 nM. In the case of `O=C(Nc1cccc2ccccc12)N1CCc2c([nH]c3ccccc23)C1c1ccccc1` (stereo not drawn) [Example 6], the IC50 in data set [1] was found to be 400 nM. `S=C(NCc1ccccc1)N1CCc2c([nH]c3ccccc23)[C@H]1c1ccc2c(c1)OCO2` [Example 2b, (1R)-1-benzo[1,3]dioxol-5-yl-1,3,4,9-tetrahydro-β-carboline-2-carbothioic acid benzylamide]: the melting point lay in the range of 205 to 207 °C. Moreover, the IC50 in data set [1] came to 40 nM. On the same counts, the results for `S=C(NCc1ccc(Cl)cc1Cl)N1CCc2c([nH]c3ccccc23)[C@H]1c1ccc2c(c1)OCO2` [Example 25, (1R)-benzo[1,3]dioxol-5-yl-1,3,4,9-tetrahydro-β-carboline-2-carbothioic acid 2,4-dichlorobenzylamide] are 124 to 127 °C and 126 nM. For `O=C(OCc1ccccc1)N1CCc2c([nH]c3ccccc23)C1c1ccc2c(c1)OCO2` (stereo not drawn) [Example 15a, 1-benzo[1,3]dioxol-5-yl-1,3,4,9-tetrahydro-β-carboline-2-carboxylic acid benzyl ester], the concentration for half-maximal inhibition (IC50) in data set [1] amounted to 17 nM. Still for that read-out and setting: in the case of `S=C(NCc1ccc(Cl)cc1)N1CCc2c([nH]c3ccccc23)[C@H]1c1ccc2c(c1)OCO2` [Example 32, (1R)-benzo[1,3]dioxol-5-yl-1,3,4,9-tetrahydro-β-carboline-2-carbothioic acid 4-chlorobenzylamide] it was 51 nM.

Consider `S=C(NCc1ccccc1Cl)N1CCc2c([nH]c3ccccc23)[C@H]1c1ccc2c(c1)OCO2` [Example 24, (1R)-benzo[1,3]dioxol-5-yl-1,3,4,9-tetrahydro-β-carboline-2-carbothioic acid 2-chlorobenzylamide], for which the melting point was 123 to 128 °C. Moreover, the IC50 in data set [1] was found to be 177 nM. On to `FC(F)(F)c1cc(NC(=S)N2CCc3c([nH]c4ccccc34)[C@H]2c2ccc3c(c2)OCO3)ccc1Cl` [Example 30, (1R)-benzo[1,3]dioxol-5-yl-1,3,4,9-tetrahydro-β-carboline-2-carbothioic acid (4-chloro-3-trifuloromethylphenyl)amide], for which the concentration for half-maximal inhibition (IC50) in data set [1] turned out to be 83 nM.

Consider `O=C(Nc1ccccc1)C(=O)N1CCc2c([nH]c3ccccc23)[C@H]1c1ccc2c(c1)OCO2` [Example 1, (1R)-2-(1-benzo[1,3]dioxol-5-yl-1,3,4,9-tetrahydro-β-carbolin-2-yl)-2-oxo-N-phenylacetamide], for which the half-maximal inhibitory concentration (IC50) in data set [1] was found to be 167 nM. In the case of `FC(F)(F)c1ccccc1NC(=S)N1CCc2c([nH]c3ccccc23)[C@H]1c1ccc2c(c1)OCO2` [Example 31, (1R)-benzo[1,3]dioxol-5-yl-1,3,4,9-tetrahydro-β-carboline-2-carbothioic acid (2-trifluoromethylphenyl)amide], in data set [1], the concentration for half-maximal inhibition (IC50) worked out at 518 nM. `O=S(=O)(/C=C/c1ccccc1)N1CCc2c([nH]c3ccccc23)C1c1ccc2c(c1)OCO2` (stereo not drawn) [Example 41a, 1-benzo[1,3]dioxol-5-yl-2-(2-phenylethenesulfonyl)-2,3,4,9-tetrahydro-1H-β-carboline] registered a melting point of 191 to 192 °C. Also, the IC50 in data set [1] turned out to be 675 nM. Take `O=C(NCc1ccccc1)N1CCc2c([nH]c3ccccc23)C1c1ccccc1` (stereo not drawn) [Example 4]: the IC50 in data set [1] was 800 nM. On to `O=C(NC1CCCCC1)N1CCc2c([nH]c3ccccc23)C1c1ccc2c(c1)OCO2` (stereo not drawn) [Example 7], for which the concentration for half-maximal inhibition (IC50) in data set [1] was 850 nM.

Regarding `COc1ccc(C2c3[nH]c4ccccc4c3CCN2C(=O)CCCC(=O)O)cc1Cl` (stereo not drawn) [Example 21], the IC50 in data set [1] was 180 nM. As for `COC(=O)N1CCc2c([nH]c3ccccc23)C1c1ccccc1` (stereo not drawn) [Example 19], the concentration for half-maximal inhibition (IC50) in data set [1] turned out to be 1 nM.

The values above are taken from patent US7122554B2, “Carboline derivatives” (Lilly Icos LLC., priority 2001, dated 2006).
